In patent US20130029942A1, “COMPOUNDS AND THERAPEUTICAL USES THEREOF” (Myrexis, Inc., priority 2003, published 2013):
pEC50: −log10 of the molar value.

System: T-47D cells
Experiment: Caspase cascade activation / induction of apoptosis in T-47D cells (fluorogenic N-(Ac-DEVD)-N'-ethoxycarbonyl-R110 substrate)
Assay type: cell-based, human
Conditions: Homo sapiens, T47D, 24 h, read-out: T-47D (24 hr) EC50 (nM)

Compound | EC50 [nM]
COc1ccc(N(C)c2nc(C)nc3cc([N+](=O)[O-])ccc23)cc1 [Example 112, (4-Methoxy-phenyl)-methyl-(2-methyl-7-nitro-quinazolin-4-yl)-amine] | > 10000

Same assay, conditions: Homo sapiens, T47D; T-47D, 24 hr; read-out: T-47D (24 hr) EC50

Compound | pEC50
Cc1nc(N(C)c2c(Br)cc(N)cc2Br)c2ccccc2n1 [Example 103, (4-Amino-2,6-dibromo-phenyl)-(2-methyl-quinazolin-4-yl)-methyl-amine] | 6.26
Cc1nc(Nc2ccc(O)cc2)c2ccccc2n1 [Example 127, (4-hydroxy-phenyl)-(2-methyl-quinazolin-4-yl)-amine] | < 5.00
COc1ccc(N(C)c2nc(CO)nc3ccccc23)cc1 [Example 76] | 8.15
Cc1nc(N(C)c2ccc([N+](=O)[O-])cc2)c2ccccc2n1 [Example 100, (2-Methyl-quinazolin-4-yl)-(4-nitro-phenyl)-methyl-amine] | 6.32
COc1ccc(N(C)c2nc(Cl)nc3cccc(Cl)c23)cc1 [Example 90, (2,5-Dichloro-quinazolin-4-yl)-(4-methoxy-phenyl)-methyl-amine] | 8.70
Cc1nc(N(C)c2ccc(N(C)C)cc2)c2ccccc2n1 [Example 105, (4-Dimethylamino-phenyl)-(2-methyl-quinazolin-4-yl)-methyl-amine] | 8.70
C[C@H]1CC[C@@H](Nc2nc(Cl)nc3ccccc23)CC1 [Example 130, (2-Chloro-quinazolin-4-yl)-(cis-4-methylcyclohexyl)-amine] | < 5.00
COc1ccc(N(C)c2nc(NCCN3CCOCC3)nc3cc(OC)c(OC)cc23)cc1 [Example 23, 6,7-Dimethoxy-N^4-(4-methoxy-phenyl)-N^4-methyl-N^2-(2-morpholin-4-yl-ethyl)-quinazoline-2,4-diamine] | < 5.00
CN(c1ccc([N+](=O)[O-])cc1)c1nc(Cl)nc2ccccc12 [Example 4, (2-Chloro-quinazolin-4-yl)-(4-nitro-phenyl)-methyl-amine] | 6.06
COc1ccc(Nc2nc(Cl)nc3cc(OC)c(OC)cc23)cc1 [Example 21, (2-Chloro-6,7-dimethoxyquinazolin-4-yl)-(4-methoxy-phenyl)-amine] | < 5.00
COc1ccc(N(C)c2nc(NC/C=C(\C)CCC=C(C)C)nc3cc(OC)c(OC)cc23)cc1 [Example 24, 6,7-Dimethoxy-N^2-(3,7-dimethyl-octa-2,6-dienyl)-N^4-(4-methoxy-phenyl)-N^4-methyl-quinazoline-2,4-diamine] | < 5.00
CC(C)=CCC/C(C)=C/CNc1nc(N(C)c2ccc(C)cc2)c2ccccc2n1 [Example 16, N^2-(3,7-Dimethyl-octa-2,6-dienyl)-N^4-(4-methyl-phenyl)-N^4-methyl-quinazoline-2,4-diamine] | 6.53
COc1ccc(N(C)c2nc(C)nc3ccccc23)c(F)c1 [Example 99, (2-Fluoro-4-methoxy-phenyl)-(2-methyl-quinazolin-4-yl)-methyl-amine] | 8.40
Cc1nc(Nc2ccc(OC(C)C)cc2)c2ccccc2n1 [Example 80, (4-Isopropoxy-phenyl)-(2-methyl-quinazolin-4-yl)-amine] | 5.24

The next lines start with the values.

pEC50 | Compound
< 5.00 | COc1ccc(Nc2nc(C)nc3ccccc23)nc1 [Example 137, (5-Methoxy-pyridin-2-yl)-(2-methyl-quinazolin-4-yl)-amine]
8.10 | COc1ccc(N(C)c2nc(SC)nc3ccccc23)cc1 [Example 120, (2-Methylthio-quinazolin-4-yl)-(4-methoxy-phenyl)-methyl-amine]
< 5.00 | Cc1nc(N(C)c2cnccn2)c2ccccc2n1 [Example 134, (2-Methyl-quinazolin-4-yl)-(pyrazin-2-yl)-methyl-amine]
8.10 | COc1ccc(N(C)c2nc(NCCO)nc3ccccc23)cc1 [Example 11, N^2-(2-Hydroxylethyl)-N^4-(4-methoxy-phenyl)-N^4-methyl-quinazoline-2,4-diamine]
< 5.00 | COc1cc(OC)c(Nc2nc(C)nc3ccccc23)c(OC)c1 [Example 82, (2-Methyl-quinazolin-4-yl)-(2,4,6-trimethoxy-phenyl)-amine]
7.82 | COc1ccc(N(C)c2nc(C)nc3ccccc23)nc1 [Example 138, (5-Methoxy-pyridin-2-yl)-(2-methyl-quinazolin-4-yl)-methyl-amine]
< 5.00 | Cc1nc(Nc2ccc(OC(F)F)cc2)c2ccccc2n1 [Example 78, (4-Difluoromethoxy-phenyl)-(2-methyl-quinazolin-4-yl)-amine]
7.19 | Cc1nc(N(C)c2ccc(O)cc2)c2ccccc2n1 [Example 93, (4-Hydroxy-phenyl)-(2-methyl-quinazolin-4-yl)-methyl-amine]
< 5.00 | CCOc1ccc(Nc2nc(C)nc3ccccc23)cc1 [Example 106, (4-Ethoxy-phenyl)-(2-methyl-quinazolin-4-yl)-amine]
8.15 | COc1ccc(N(C)c2nc(C)nc3ccc(N)cc23)cc1 [Example 110, (6-Amino-2-methyl-quinazolin-4-yl)-(4-methoxy-phenyl)-methyl-amine]
5.87 | COc1ccc(N(C)c2nc(NCCN3CCOCC3)nc3ccccc23)cc1 [Example 14, N^4-(4-Methoxy-phenyl)-N^4-methyl-N^2-(2-morpholin-4-yl-ethyl)-quinazoline-2,4-diamine]
6.13 | COc1ccc(N(C)c2nc(C)nc3cc(N)ccc23)cc1 [Example 113, (7-Amino-2-methyl-quinazolin-4-yl)-(4-methoxy-phenyl)-methyl-amine]
7.26 | COc1cnc(N(C)c2nc(C)nc3ccccc23)cn1 [Example 126, (5-Methoxy-pyrazin-2-yl)-(2-methyl-quinazolin-4-yl)-methyl-amine]
< 5.00 | CN(c1nc(Cl)nc2ccccc12)[C@H]1CC[C@H](C)CC1 [Example 133, (2-Chloro-quinazolin-4-yl)-(trans-4-methylcyclohexyl)-methyl-amine]
6.16 | COc1cccc(N(C)c2nc(Cl)nc3ccccc23)c1OC [Example 39, (2-Chloro-quinazolin-4-yl)-(2,3-dimethoxy-phenyl)-methyl-amine]
< 5.00 | COc1ccc(Nc2nc(C)nc3ccccc23)c(F)c1 [Example 96, (2-Fluoro-4-methoxy-phenyl)-(2-methyl-quinazolin-4-yl)-amine]
5.37 | Cc1nc(N(C)c2ccc(C(=O)ON3C(=O)CCC3=O)cc2)c2ccccc2n1 [Example 119, Succinimidyl 4-(N-Methyl-N-(2-methylquinazolin-4-yl)amino)benzoic acid ester]
6.41 | COc1ccc(N(C)c2nc(C)nc3ccccc23)nn1 [Example 125, (6-Methoxy-pyridazin-3-yl)-(2-methyl-quinazolin-4-yl)-methyl-amine]

Same assay, conditions: Homo sapiens, T47D; T-47D, 48 hr; benzohydrazide table; read-out: T-47D (48 hr) EC50

pEC50 | Compound
6.13 | CSc1nc(N(C)NC(=O)c2cccs2)c2ccccc2n1

Same assay, conditions: Homo sapiens, T47D; T-47D, 48 hr; read-out: T-47D (48 hr) EC50

Compound | pEC50
COc1ccc(N(C)c2nc(CO)nc3ccccc23)cc1 [Example 76] | 8.10
COc1ccc(N(C)c2nc(Cl)nc3cc(C)ccc23)cc1 [Example 57, (2-Chloro-7-methyl-quinazolin-4-yl)-(4-methoxy-phenyl)-methyl-amine] | 6.36
COc1ccc(N(C)c2nc(Cl)nc3c(Cl)cccc23)cc1 [Example 89, (2,8-Dichloro-quinazolin-4-yl)-(4-methoxy-phenyl)-methyl-amine] | 7.62
COc1ccc(N(C)c2nc(CF)nc3ccccc23)cc1 [Example 55, (2-Fluoromethyl-quinazolin-4-yl)-(4-methoxy-phenyl)-methyl-amine] | 9.00
COc1ccc(N(C)c2nc(NCCO)nc3cc(OC)c(OC)cc23)cc1 [Example 50, N^2-(2-Hydroxyethyl)-N^4-(4-methoxy-phenyl)-N^4-methyl-6,7-dimethoxyquinazoline-2,4-diamine] | < 5.00
COc1ccc(N(c2nc(Cl)nc3ccccc23)C2CCCC2)cc1 [Example 45, (2-Chloro-quinazolin-4-yl)-cyclopentyl-(4-methoxy-phenyl)-amine] | < 5.00
COc1ccc(N(C)c2nc(NCCN3CCOCC3)nc3cc(OC)c(OC)cc23)cc1 [Example 23, 6,7-Dimethoxy-N^4-(4-methoxy-phenyl)-N^4-methyl-N^2-(2-morpholin-4-yl-ethyl)-quinazoline-2,4-diamine] | < 5.00
COc1ccc(N(C)c2nc(Cl)nc3[nH]cnc23)cc1 [Example 51, (2-Chloro-9H-purin-6-yl)-(4-methoxy-phenyl)-methyl-amine] | < 5.00
CCN(c1ccc(OC)cc1)c1nc(Cl)nc2ccccc12 [Example 40, (2-Chloro-quinazolin-4-yl)-ethyl-(4-methoxy-phenyl)-amine] | 7.33
COc1ccc(Nc2nc(Cl)nc3cc(OC)c(OC)cc23)cc1 [Example 21, (2-Chloro-6,7-dimethoxyquinazolin-4-yl)-(4-methoxy-phenyl)-amine] | < 5.00
COc1ccc(N(C)c2nc(NC/C=C(\C)CCC=C(C)C)nc3cc(OC)c(OC)cc23)cc1 [Example 24, 6,7-Dimethoxy-N^2-(3,7-dimethyl-octa-2,6-dienyl)-N^4-(4-methoxy-phenyl)-N^4-methyl-quinazoline-2,4-diamine] | 5.02
COc1ccc(N(C)c2nc(Cl)nc3ccc(Cl)cc23)cc1 [Example 60, (2,6-Dichloro-quinazolin-4-yl)-(4-methoxy-phenyl)-methyl-amine] | 7.89

Other lines, results leading:

pEC50 | Compound
9.00 | COc1ccc(N(C)c2nc(Cl)nc3cccc(C)c23)cc1 [Example 58, (2-Chloro-5-methyl-quinazolin-4-yl)-(4-methoxy-phenyl)-methyl-amine]
6.77 | COc1ccc(N(C)c2nc(-c3ccccc3)nc3ccccc23)cc1 [Example 83, (4-Methoxy-phenyl)-(2-phenyl-quinazolin-4-yl)-methyl-amine]
< 5.00 | COc1ccc2c(ccn2-c2nc(Cl)nc3ccccc23)c1 [Example 9, 2-Chloro-4-(5-methoxyindol-1-yl)quinazoline]
8.00 | COc1ccc(N(C)c2nc(NCCO)nc3ccccc23)cc1 [Example 11, N^2-(2-Hydroxylethyl)-N^4-(4-methoxy-phenyl)-N^4-methyl-quinazoline-2,4-diamine]
< 5.00 | COc1cccc(Nc2nc(Cl)nc3ccccc23)c1OC [Example 29, (2-Chloro-quinazolin-4-yl)-(2,3-dimethoxy-phenyl)-amine]
7.34 | CN(c1ccc(O)cc1)c1nc(Cl)nc2ccccc12 [Example 54, (2-Chloro-quinazolin-4-yl)-(4-hydroxyphenyl)-methylamine]
5.88 | COc1ccc(N(C)c2nc(NCCN3CCOCC3)nc3ccccc23)cc1 [Example 14, N^4-(4-Methoxy-phenyl)-N^4-methyl-N^2-(2-morpholin-4-yl-ethyl)-quinazoline-2,4-diamine]
6.37 | COc1ccc(N(C)c2nc(N(C)c3ccc(OC)cc3)c3c(Cl)cccc3n2)cc1 [Example 63, 5-Chloro-N^2,N^4-bis-(4-methoxy-phenyl)-N^2,N^4-dimethyl-quinazoline-2,4-diamine]
6.75 | COc1ccc(CN(C)c2nc(Cl)nc3ccccc23)cc1 [Example 26, (2-Chloro-quinazolin-4-yl)-(4-methoxy-benzyl)-methyl-amine]

Same assay, conditions: T-47D, 48 hr; benzohydrazide table

Compound | T-47D (48 hr) Ratio
CSc1nc(N(C)NC(=O)c2cccs2)c2ccccc2n1 | 10.1
